Stability and LD50 data for one molecule are collected here from patent US4607046A, “4-(1-imidazolylmethyl)cinnamic acid hydrochloride monohydrate and pharmaceutical compositions” (Kissei Pharmaceutical Co., Ltd., priority 1981, dated 1986).

Structures are written as SMILES. Where a name gives a salt, the structure may show the parent alone. Some results are limits rather than exact numbers.

Data set [1] in a line: Stability under high or low humidity condition. It counts as physicochemical. The settings on record: below about 50° C.
Data set [2] is described as follows: Acute toxicity, oral administration to a rat (LD50). As to conditions: in vivo. The method, then:
The LD50 value of this compound is in oral administration to a rat is 6000 mg/kg or more.

For the molecule `O=C(O)C=Cc1ccc(Cn2ccnc2)cc1` [4-(1-imidazolylmethyl)cinnamic acid hydrochloride monohydrate], in data set [1], the stability entry is on record as “stable”. In data set [2], this molecule returned an LD50 not below 6000 mg/kg.
